Data from patent publication US7713996B2, “Indolyl derivatives which are L-CPT1 inhibitors” (Hoffmann-La Roche Inc., priority 2005, dated 2010).

Molecular target: T1, L-CPT1 (Homo sapiens, UniProt P50416)
T1 construct: made in house; host or cells: Pichia pastoris strain X-33
T1 sequence (P50416 1-773): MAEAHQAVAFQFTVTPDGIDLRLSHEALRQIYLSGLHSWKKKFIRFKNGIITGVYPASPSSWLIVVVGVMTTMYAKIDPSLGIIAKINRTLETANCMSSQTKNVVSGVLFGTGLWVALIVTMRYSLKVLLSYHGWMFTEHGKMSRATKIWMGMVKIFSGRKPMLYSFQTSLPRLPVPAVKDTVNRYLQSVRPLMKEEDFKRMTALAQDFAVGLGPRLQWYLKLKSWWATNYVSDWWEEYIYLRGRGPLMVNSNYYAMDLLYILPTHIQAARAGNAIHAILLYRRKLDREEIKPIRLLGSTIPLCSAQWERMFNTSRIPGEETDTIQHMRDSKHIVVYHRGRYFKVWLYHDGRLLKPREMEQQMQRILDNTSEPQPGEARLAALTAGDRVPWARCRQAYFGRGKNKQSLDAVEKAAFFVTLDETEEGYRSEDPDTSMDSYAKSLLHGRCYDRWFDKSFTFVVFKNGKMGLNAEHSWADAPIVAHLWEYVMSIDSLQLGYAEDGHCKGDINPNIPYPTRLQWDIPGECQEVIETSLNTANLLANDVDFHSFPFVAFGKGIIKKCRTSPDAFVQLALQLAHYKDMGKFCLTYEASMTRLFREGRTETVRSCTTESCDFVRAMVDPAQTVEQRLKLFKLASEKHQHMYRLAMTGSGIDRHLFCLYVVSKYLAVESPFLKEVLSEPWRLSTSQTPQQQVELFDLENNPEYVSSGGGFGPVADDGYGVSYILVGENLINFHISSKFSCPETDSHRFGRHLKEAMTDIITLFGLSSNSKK
Experiment: L-CPT1 inhibition, spectrophotometric CPT activity assay with DTNB (Ellman's reagent)
Assay type: biochemical
Conditions: human liver CPT1 expressed in P. pastoris, cell extracts; carnitine 500 μM, palmitoyl-CoA 80 μM, DTNB 300 μM, pH 7.4
Experimental: The following tests were carried out in order to determine the activity of the compounds of the present invention. Background information on the performed assays can be found in: Jackson et al., 1999, Biochem. J. 341, 483-489 and Jackson et al., 2000, J. Biol. Chem. 275, 19560-19566.
Human liver and muscle CPT1 cDNAs and rat CPT2 cDNA were subcloned in pGAPZB or pGAPZA, respectively. These plasmids were used to transform P. pastoris strain X-33 via electroporation after the preparation of electrocompetent cells. High copy number clones were selected where necessary using 0.5 or 1 mg/ml Zeocin. Cultures for activity measurements were induced for 16 h in YPD medium (1% yeast extract, 2% peptone, 2% glucose). Crude cell extracts were prepared by disrupting the cells with glass beads or French Press, depending on fermenter sizes. After centrifugation, the cell-free extracts were resuspended in cell breaking buffer (50 mM Tris, pH7.4, 100 mM KCl, 1 mM EDTA) in the presence of a protease inhibitor cocktail, before aliquoting and freezing at −20° C.
CPT activity was measured using a spectrophotometric assay using 5,5′-dithio-bis-(2-nitrobenzoic acid) (DTNB) also called Ellman's reagent. The HS-CoA released on the formation of acylcarnitine from carnitine (500 μM) and palmitoyl-CoA (80 μM) reduced DTNB (300 μM) forming 5-mercapto-(2-nitrobenzoic acid) which absorbed at 410 nm with a molar coefficient extinction of 13600 M^−1·cm^−1. The assay buffer contained 120 mM KCl, 25 mM Tris, pH 7.4, 1 mM EDTA. This assay was used for the identification of selective inhibitors of the liver CPT1 isoform versus the muscle CPT1 and CPT2 isoforms.

| Compound | IC50 [nM] |
| --- | --- |
| O=C(Nc1ccc(C(=O)O)c(Cl)c1)c1ccc2c(c1)N(S(=O)(=O)c1cccc(Cl)c1)CC2 [Example 1, 2-Chloro-4-{[1-(3-chloro-benzenesulfonyl)-2,3-dihydro-1H-indole-6-carbonyl]-amino}-benzoic acid] | 160 |
| COc1ccc(Cl)cc1S(=O)(=O)N1CCc2ccc(C(=O)Nc3ccc(C(=O)O)c(F)c3)cc21 [Example 12, 4-{[1-(5-Chloro-2-methoxy-benzenesulfonyl)-2,3-dihydro-1H-indole-6-carbonyl]-amino}-2-fluoro-benzoic acid] | 72.2 |
| COc1ccc(Cl)cc1S(=O)(=O)N1CCc2ccc(C(=O)Nc3ccc(C(=O)O)cc3)cc21 [Example 31, 4-{[1-(5-Chloro-2-methoxy-benzenesulfonyl)-2,3-dihydro-1H-indole-6-carbonyl]-amino}-benzoic acid] | 20.6 |
